Laboratory results taken from ChEMBL document CHEMBL1821577, “Discovery of GSK1997132B a novel centrally penetrant benzimidazole PPARγ partial agonist” (Bioorg Med Chem Lett, 2011).
pEC50: −log10 of the molar value.

Tests used:
[1] = biological target: T1, Peroxisome proliferator-activated receptor gamma (Homo sapiens, UniProt P37231); assay: Partial agonist activity at human PPARgamma by luciferase reporter gene assay; format: functional
T1 sequence (P37231 whole entry): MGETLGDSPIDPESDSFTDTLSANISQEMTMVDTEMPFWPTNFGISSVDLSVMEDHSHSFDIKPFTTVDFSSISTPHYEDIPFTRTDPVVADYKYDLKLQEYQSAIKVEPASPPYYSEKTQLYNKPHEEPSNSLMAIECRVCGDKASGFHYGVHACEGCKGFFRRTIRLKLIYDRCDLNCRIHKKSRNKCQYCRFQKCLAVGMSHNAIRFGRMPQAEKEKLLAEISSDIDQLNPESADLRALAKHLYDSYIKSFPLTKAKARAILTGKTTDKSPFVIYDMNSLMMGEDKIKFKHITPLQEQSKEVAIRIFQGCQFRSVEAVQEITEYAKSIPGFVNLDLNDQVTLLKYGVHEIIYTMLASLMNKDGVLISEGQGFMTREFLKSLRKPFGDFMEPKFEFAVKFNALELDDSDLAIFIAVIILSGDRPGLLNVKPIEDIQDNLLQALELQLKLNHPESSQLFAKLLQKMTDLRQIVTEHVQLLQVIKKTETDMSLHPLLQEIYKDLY

[2] = biological target: T2, Peroxisome proliferator-activated receptor gamma (Homo sapiens) (UniProt P37231); assay: Activity at human PPARgamma by luciferase reporter gene assay; parameters: concentration or dose not given beside the values
T2 sequence (whole entry): T1 sequence (P37231 whole entry)

[3] = system: Liver; assay: Intrinsic clearance in rat liver S9 fraction; format: ADME, subcellular
[4] = system: Rattus norvegicus; assay: Blood clearance in rat at 1 mg/kg, iv; format: ADME, organism-based; parameters: dose 1 mg/kg, route intravenous; details: in vivo
[5] = system: Brain; assay: Drug uptake in rat brain at 3 mg/kg, po; format: ADME, organism-based; parameters: dose 3 mg/kg, route oral; details: in vivo, read-out: Drug uptake
[6] = system: Liver microsomes; assay: Intrinsic clearance in human liver microsome; format: ADME
[7] = system: Liver microsomes; assay: Intrinsic clearance in rat liver microsome; format: ADME
[8] = Ratio of drug uptake in brain to blood in rat at 3 mg/kg, po; format: ADME, organism-based; parameters: dose 3 mg/kg, route oral
[9] = system: Brain; assay: Drug uptake in rat brain at steady state at 2 mg/kg/h, iv; format: ADME, organism-based; parameters: route intravenous; details: in vivo, read-out: Drug uptake
[10] = system: Rattus norvegicus; assay: Blood clearance at steady state in rat at 2 mg/kg/h, iv; format: ADME, organism-based; parameters: route intravenous; details: in vivo
[11] = Ratio of drug uptake in brain to blood at steady state in rat at 2 mg/kg/h, iv; format: ADME, organism-based; parameters: route intravenous
[12] = system: Mus musculus; assay: Blood clearance in mouse at 1 mg/kg, iv; format: ADME, organism-based; parameters: dose 1 mg/kg, route intravenous; details: in vivo
[13] = system: Liver; assay: Intrinsic clearance in mouse liver microsome; format: ADME; details: microsomes
[14] = biological target: T3, Peroxisome proliferator-activated receptor alpha (Homo sapiens, UniProt Q07869); assay: Partial agonist activity at PPARalpha by luciferase reporter gene assay; format: functional
T3 sequence (Q07869 whole entry): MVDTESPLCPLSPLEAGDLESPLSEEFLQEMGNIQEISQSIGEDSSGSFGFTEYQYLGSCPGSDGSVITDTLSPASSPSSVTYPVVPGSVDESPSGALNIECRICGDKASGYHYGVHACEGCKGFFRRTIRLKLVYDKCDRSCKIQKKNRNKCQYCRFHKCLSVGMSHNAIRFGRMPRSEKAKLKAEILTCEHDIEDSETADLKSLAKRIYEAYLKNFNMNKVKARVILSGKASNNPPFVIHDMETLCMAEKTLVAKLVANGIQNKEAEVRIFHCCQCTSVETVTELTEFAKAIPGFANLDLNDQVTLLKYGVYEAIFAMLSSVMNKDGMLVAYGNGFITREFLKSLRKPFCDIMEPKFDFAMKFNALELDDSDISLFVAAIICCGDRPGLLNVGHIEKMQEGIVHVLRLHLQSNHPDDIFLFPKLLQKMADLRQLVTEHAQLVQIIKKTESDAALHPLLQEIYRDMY

[15] = biological target: T4, Peroxisome proliferator-activated receptor delta (Homo sapiens, UniProt Q03181); assay: Partial agonist activity at PPARdelta by luciferase reporter gene assay; format: functional
T4 sequence (Q03181 whole entry): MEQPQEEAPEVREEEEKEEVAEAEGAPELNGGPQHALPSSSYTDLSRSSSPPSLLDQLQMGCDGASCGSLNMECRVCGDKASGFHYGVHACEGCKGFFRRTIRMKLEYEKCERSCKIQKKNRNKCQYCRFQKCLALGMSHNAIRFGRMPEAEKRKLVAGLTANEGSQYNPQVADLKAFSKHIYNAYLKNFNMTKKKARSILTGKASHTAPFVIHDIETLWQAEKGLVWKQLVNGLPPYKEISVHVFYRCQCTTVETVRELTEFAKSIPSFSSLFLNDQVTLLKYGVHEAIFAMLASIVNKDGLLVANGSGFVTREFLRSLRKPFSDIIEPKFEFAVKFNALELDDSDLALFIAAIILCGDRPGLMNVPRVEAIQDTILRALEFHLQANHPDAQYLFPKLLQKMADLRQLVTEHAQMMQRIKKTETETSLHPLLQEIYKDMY

Compound	pEC50 [1]	Activity [2] [%]	also measured
CC[C@@H](NC(=O)c1ccc2c(c1)nc(C)n2Cc1cccc(Cl)c1)c1ccccc1	7.10	76	
CC[C@@H](NC(=O)c1ccc2c(c1)ncn2Cc1cccnc1)c1ccccc1	6.30	74	
CC[C@@H](NC(=O)c1ccc2c(c1)ncn2Cc1ccccc1S(C)(=O)=O)c1ccccc1	6.40	73	
CC[C@H](NC(=O)c1ccc2c(c1)nc(C)n2Cc1ccc(Cl)c(Cl)c1)c1ccccc1	6.60	21	
CC[C@@H](NC(=O)c1ccc2c(c1)ncn2Cc1ncc(Cl)cc1Cl)c1ccccc1	9.30	76	
CC[C@@H](NC(=O)c1ccc2c(c1)nc(C(C)C)n2Cc1ccc(Cl)c(Cl)c1)c1ccccc1	6.40	42	
Cc1nc2cc(C(=O)N[C@H](C)c3ccccc3)ccc2n1Cc1ccc(Cl)c(Cl)c1	7.30	77	CL [3]: 8.3 mL/min/g; clearance [4]: 75 mL/min/kg; concentration [5]: 12 nM; CL [6]: 0.5 mL/min/g; CL [7]: 1.4 mL/min/g; Kp [8]: 0.29
CC[C@@H](NC(=O)c1ccc2c(c1)nc(C)n2Cc1ccc(C(N)=O)cc1)c1ccccc1	5.00	17	
CC[C@@H](NC(=O)c1ccc2c(c1)nc(C)n2Cc1ccc(Cl)cc1)c1ccccc1	7.50	66	
CC[C@@H](NC(=O)c1ccc2c(c1)ncn2Cc1ccc(F)cc1F)c1ccccc1	8.80	73	concentration [9]: 455 nM; CL [6]: 0.5 mL/min/g; clearance [10]: 107 mL/min/kg; CL [7]: 3.7 mL/min/g; Kp [11]: 0.59
CC[C@@H](NC(=O)c1ccc2c(c1)ncn2Cc1ccc(Cl)cc1)c1ccccc1	8.50	74	
CC[C@@H](NC(=O)c1ccc2c(c1)ncn2Cc1ccccc1OC)c1ccccc1	8.30	75	
CC[C@@H](NC(=O)c1ccc2c(c1)nc(C)n2Cc1ccccc1Cl)c1ccccc1	7.30	80	
CC[C@@H](NC(=O)c1ccc2c(c1)ncn2Cc1ccc(F)c(Cl)c1)c1ccccc1	8.20	85	
Cc1nc2cc(C(=O)N[C@@H](C)c3ccccc3)ccc2n1Cc1ccc(Cl)c(Cl)c1	6.20	50	
CCC(NC(=O)c1ccc2c(c1)nc(C)n2Cc1ccc(Cl)c(Cl)c1)c1ccccc1 (stereo not given)	7.30	64	clearance [12]: 736 mL/min/kg; CL [6]: 0.5 mL/min/g; CL [13]: 1.75 mL/min/g; pEC50 [14]: < 5.00; CL [7]: 2.5 mL/min/g; pEC50 [15]: < 5.00

Compound	pEC50 [1]	Activity [2] [%]	also measured
CC[C@@H](NC(=O)c1ccc2c(c1)ncn2Cc1ccccn1)c1ccccc1	6.90	59	concentration [9]: 228 nM; clearance [10]: 78 mL/min/kg; Kp [11]: 0.2
CC[C@@H](NC(=O)c1ccc2c(c1)ncn2Cc1ccc(Cl)cc1Cl)c1ccccc1	9.30	77	
CC[C@@H](NC(=O)c1ccc2c(c1)nc(C1CC1)n2Cc1ccc(Cl)c(Cl)c1)c1ccccc1	6.90	58	
CC[C@@H](NC(=O)c1ccc2c(c1)ncn2Cc1ccncc1)c1ccccc1	6.10	63	
CC[C@@H](NC(=O)c1ccc2c(c1)nc(C)n2Cc1ccc(F)cc1)c1ccccc1	6.80	74	
CC[C@@H](NC(=O)c1ccc2c(c1)nc(C)n2Cc1ccc(S(C)(=O)=O)cc1)c1ccccc1	5.30	48	
CC[C@@H](NC(=O)c1ccc2c(c1)nc(C(F)(F)F)n2Cc1ccc(Cl)c(Cl)c1)c1ccccc1	6.60	60	
CC[C@@H](NC(=O)c1ccc2c(c1)ncn2Cc1ncccc1Cl)c1ccccc1	7.80	81	
CC[C@@H](NC(=O)c1ccc2c(c1)ncn2Cc1ccccc1F)c1ccccc1	8.10	80	
Cc1nc2cc(C(=O)NCc3ccccc3)ccc2n1Cc1ccc(Cl)c(Cl)c1	6.40	83	
CC[C@@H](NC(=O)c1ccc2c(c1)ncn2Cc1ccc(Cl)cc1F)c1ccccc1	9.10	74	
CCC(=O)c1nc2cc(C(=O)N[C@H](CC)c3ccccc3)ccc2n1Cc1ccc(Cl)c(Cl)c1	7.10	75	
CC[C@@H](NC(=O)c1ccc2c(c1)ncn2Cc1ccc(Cl)c(Cl)c1)c1ccccc1	8.60	71	CL [3]: 10 mL/min/g; concentration [9]: 655 nM; CL [6]: 0.6 mL/min/g; clearance [10]: 84 mL/min/kg; CL [7]: 3.3 mL/min/g; Kp [11]: 0.71
CC[C@@H](NC(=O)c1ccc2c(c1)nc(C)n2Cc1ccc(Cl)c(Cl)c1)c1ccccc1	7.40	75	
CC[C@@H](NC(=O)c1ccc2c(c1)ncn2Cc1ccc(Cl)cn1)c1ccccc1	7.40	80	
CCc1nc2cc(C(=O)N[C@H](CC)c3ccccc3)ccc2n1Cc1ccc(Cl)c(Cl)c1	6.70	65	
